# Measurements from article PMC12534982 (Journal of Experimental & Clinical Cancer Research : CR, 2025).
# Tests used:
# Assay type in all cases: cell-based, human
# [1] = tested on: SW620 cells; experiment: Intracellular nucleotides, orotate and DHO by HPLC–MS/MS; conditions: 25 µM, 24 h
# Method: Cancer cells (2.2 × 10^6) were cultured in 100-mm Petri dishes and treated with DMSO or NK-A 17E-233I (25 µM) for 24 h. Nucleotides and related compounds were extracted from cell pellets by treatment with 0.5 M trichloroacetic acid (TCA) followed by neutralization and solvent evaporation as detailed in [30]. Dry extracts were stored at -70°C until further analysis. Protein pellets sedimented after TCA precipitation were re-dissolved in 1 mL of 100 mM NaOH, 5% SDS by incubation at 95 °C for 5 min, followed by complete re-dissolution through several syringe strokes with a 23G needle. The concentration of the re-dissolved protein was quantified using the Pierce™ BCA Protein Assay Kit (Thermo Fisher Scientific), with the amount of the metabolites referenced to protein content.
# On the day of metabolite analysis, the dry extracts were re-dissolved in 150 µL of water. Nucleotides, DHO and orotate concentrations were determined using HPLC–MS/MS using Acquity UPLC-Xevo™ TQ Mass Spectrometer (Waters, MA, USA), following the methodology described in [30]. The m/z transitions for DHO and orotate were 156.87 > 113.09 and 154.90 > 111.00, respectively. The identification of all compounds was based on retention time and specific ion transitions. The calibration curves generated with aqueous standards were processed concurrently, and the concentrations were derived from peak area interpolation using TargetLynx software (Waters, MA, USA).
# [2] = tested on: cell lines from other cancer types (osteosarcoma, breast, lung); experiment: Cell morphology studies (brightfield); conditions: 25 µM, 48 h
# Description: Brightfield images were captured using a Leica DMi8 microscope with a 10X or 20X objective (HC PL FLUOTAR 10X/0.45 or 20X/0.75) equipped with a Leica DFC9000GT camera, and processed with a Leica Application Suite X (LAS X) Life Science Microscope Software (v3.5.5.19976, RRID:SCR_013673).
# [3] = tested on: colorectal cancer cells; experiment: Intracellular ATP levels (CellTiter-Glo); conditions: 25 µM
# Method: Luminescence readings were recorded with a Victor Multilabel Plate Reader (PerkinElmer Life Sciences, Massachusetts, USA).
# [4] = tested on: colorectal cancer cells; experiment: Cleaved caspase-3 by flow cytometry; conditions: 25 µM, 48 h
# Method: Cancer cells (3 × 10^4) were cultured in 48-well plates and treated with DMSO or NK-A 17E-233I (25 µM) for 48 h. Following treatment, the cells were harvested, and the supernatant was discarded. Cell pellets were resuspended in 4% methanol-free paraformaldehyde (PFA, #28908; Thermo Fisher Scientific) while vortexing and incubated in the dark at room temperature for 15 min. One milliliter of PBS was added to all tubes, followed by centrifugation at 500 × g for 5 min. The supernatant was discarded, and the pellets were permeabilized using 90% cold methanol with incubation on ice for 10 min. Subsequently, 1 mL of 0.5% BSA (#A3059; Sigma-Aldrich) was added, and the samples were centrifuged at 500 × g for 5 min. The supernatant was discarded, and the pellets were resuspended in 0.5% BSA. The anti–caspase-3 (p17, Cleaved-Asp175) primary antibody (#9661; Cell Signaling, dilution 1:800) was used to incubate samples at room temperature for 1 h. Afterwards, 0.5% BSA was added, and the tubes were centrifuged at 500 × g for 5 min. The supernatant was discarded, and the pellets were resuspended in 0.5% BSA. The samples were then incubated with F(ab')2-Goat anti-Rabbit IgG (H + L) Cross-Adsorbed Secondary Antibody, Alexa Fluor 633 (#A-21072; Invitrogen, dilution 1:1000) in the dark at room temperature for 30 min. […]
# [5] = tested on: colorectal cancer cells; experiment: Clonogenic assay
# Method: Cancer cells (4 × 10^3) were cultured in 6-well plates in triplicate and treated with DMSO or NK-A 17E-233I (25 µM) for two weeks. Colonies were subsequently stained with a solution containing 0.5% crystal violet (#B21932.14; ThermoScientific) and 20% ethanol, followed by multiple washes with water. Plates were allowed to air dry overnight and were subsequently scanned using an Epson Perfection V850 Pro scanner (Kamera Express, Spain). The area of the wells occupied by cells was quantified utilizing the ImageJ plugin ColonyArea.
# [6] = tested on: colorectal cancer cells; experiment: Oxidative stress (CellROX Deep Red)
# Method: Cancer cells (1 × 10^3) were cultured in 8-well collagen IV Ibidi chamber slides and treated with DMSO or NK-A 17E-233I (25 µM) for 24 h. The media was replaced with fresh media containing 100 nM MitoTracker Red dye to measure ΔΨm (1 mM stock; #M7512; Thermo Fisher Scientific) and 5 µM CellROX Deep Red Reagent to assess oxidative stress levels (2.5 mM stock; #C10422; Thermo Fisher Scientific) for 45 min. The cells were then fixed with 4% methanol-free PFA, washed with PBS, and mounted with Ibidi mounting medium containing 4',6-diamidino-2-phenylindole (DAPI) prior to imaging.
# The density of γ-H2AX, Rad51, ΔΨm, and oxidative stress in cancer cells was measured as described in [32], utilizing custom macros available as open access at Zenodo (https://zenodo.org/records/8387899) to obtain raw intensities and individual cell area.
# [7] = median [Minimum – Maximum], five experiments
# [8] = median [Minimum – Maximum], four experiments
smiles,measurement,setting,value
COc1cc(C)c(Oc2cc(C)cc(O)c2O)c(O)c1 [NK-A 17E-233I],levels of purine nucleotides,[1],remained unchanged
same,ADP amount,[1]; [7],"7,917 [5,048–9,389] pmoles/mg protein"
same,AMP + ADP + ATP amount,[1]; [7],"26,257 [24,352 – 27,848] pmoles/mg protein"
same,AMP amount,[1]; [7],"961 [405–2,739] pmoles/mg protein"
same,ATP amount,[1]; [7],"15,907 [14,173–21,694] pmoles/mg protein"
same,CDP amount,[1]; [7],351 [143–504] pmoles/mg protein
same,CMP + CDP + CTP amount,[1]; [7],"6,327 [6,028 – 10,285] pmoles/mg protein"
same,CMP amount,[1]; [7],263 [220–707] pmoles/mg protein
same,CTP amount,[1]; [7],"5,801 [5,142–9,519] pmoles/mg protein"
same,GDP amount,[1]; [7],"1,339 [1,008–1,566] pmoles/mg protein"
same,GMP + GDP + GTP amount,[1]; [7],"5,228 [4,902 – 7,797] pmoles/mg protein"
same,GTP amount,[1]; [7],"3,565 [3,407–6,418] pmoles/mg protein"
same,UDP amount,[1]; [7],"927 [867–1,161] pmoles/mg protein"
same,UMP amount,[1]; [7],335 [81–424] pmoles/mg protein
same,UTP amount,[1]; [7],"4,013 [3,397–6,651] pmoles/mg protein"
same,GMP amount,"[1]; median [Minimum – Maximum], five experiments, undetectable treated as zero",156 [0–268] pmoles/mg protein
same,DHO amount,[1]; [8],26.5 [18.3–228.5] pmoles/mg protein
same,Orotate amount,[1]; [8],70.5 [61.7–137.1] pmoles/mg protein
same,cytotoxic effects,[2],cytotoxic effects
same,ATP production / proliferation with non-physiological uridine,"[3]; 200 µM uridine, various time points",did not impact the production of ATP or cancer cell proliferation
same,levels of ATP,[3]; up to 24 h,reduced
same,active caspase-3 staining,[4],significantly increased
same,ability to form colonies,"[5]; 25 µM, two weeks",significantly diminished
same,combination with the ATR inhibitor VE-821,"[5]; LS174T: Tx 4 µM, VE-821 0.5 µM, 14 days, HCT116",synergistic activity
same,ROS levels,"[6]; HCT116, 25 µM, 24 h",significantly decreased
same,ROS levels,"[6]; different cancer cell lines (HT-29), 25 µM",without significant effect
